# “Also recorded” adds a separate entry of the source. Structures can show the parent of a compound that is named as a salt.
# Legend:
# NMNAT = test: NRH-induced NAD+ synthesis under NMNAT inhibition (gallotannin); assay type: cell-based
# Description: As a follow-up step, NMNAT enzymes could catalyze the transition from NMNH to NADH. […] Yet, part of the NRH action remained after gallotannin treatment when NRH was used at maximal doses.
# adenosine kinase (AK) = target: T1, adenosine kinase (AK) (Mus musculus, UniProt P55264); test: NRH-induced NAD+ synthesis under adenosine kinase inhibition; assay type: cell-based; parameters: effect of AK inhibitor on the action of NRH (NAD+ synthesis): dose or concentration left out as unconfirmed; settings: for effect of AK inhibitor on the action of NRH (NAD+ synthesis): AML12 cells, inhibitor 1 hour prior to NRH (5-IT), NAD+ 1 hour later
# T1 construct: endogenous in cells; host or cells: AML12 cells
# Experimental: FIG. 4. […] AML12 cells were treated with an adenosine kinase inhibitor (5-IT; […]) for 1 hour prior to NRH treatment at the doses indicated. Then, 1 hour later, acidic extracts were obtained to measure NAD^+ levels. All values in the figure are expressed as mean+/−SEM of 3 independent experiments. * indicates statistical difference at p<0.05 vs. the respective vehicle treated group.
# [1] = tested on: equilibrative nucleoside transporters (ENTs); test: NRH as extracellular NAD+ precursor under blockage of ENT-mediated transport (NBTI); assay type: cell-based; settings: in the presence of NBTI
# Description: In order to understand the exact path by which NRH synthesizes NAD+, we initially evaluated whether NRH, could be transported into the cell by equilibrative nucleoside transporters (ENTs).
# Stability in water = assay type: physicochemical; settings: pH=7, room temperature
# Experimental: (§1) NR degradation to NAM has been proposed as a limitation for its pharmacological efficacy. To evaluate whether NRH was also susceptible to degradation to NAM, we spiked NRH or NR in isolated mouse plasma. […] We also tested the stability of NRH in other matrixes. […] Finally, we also certified NRH stability in water (pH=7, at room temperature) for 48 h.
# [2] = Oral gavage in mice: hepatic NAD+ and plasma metabolites; assay type: in vivo; settings: for administered compound in plasma: 1 h after oral administration
# Experimental: 8 week-old C57BI/6NTac mice were orally gavaged with either saline (as vehicle), NR (500 mg/kg) or NRH (500 mg/kg). After 1 hour, liver, skeletal muscle and kidney NAD levels were evaluated. All results are expressed as mean+/−SEM of n=5 mice per group. * indicates statistical difference at p<0.05 vs. vs. saline-treated mice. # indicates statistical difference at p<0.05 vs. NR treated mice.
# (§2) Levels of NRH and other NAD-related metabolites in biological samples were obtained by using a cold liquid-liquid extraction using a mixture of methanol:water:chloroform in 5:3:5 (v/v), from which the polar phase was recovered for hydrophilic interaction ultra-high performance liquid chromatography mass spectrometry (UHPLC-MS) analysis. The UHPLC consisted of a binary pump, a cooled autosampler, and a column oven (DIONEX Ultimate 3000 UHPLC+ Focused, Thermo Scientific), connected to a triple quadrupole spectrometer (TSQ Vantage, Thermo Scientific) equipped with a heated electrospray ionisation (H-ESI) source. Of each sample, 2 μL were injected into the analytical column (2.1 mm×150 mm, 5 μm pore size, 200 Å HILICON iHILIC®-Fusion(P)), guarded by a pre-column (2.1 mm×20 mm, 200 Å HILICON iHILIC®-Fusion(P) Guard Kit) operating at 35° C. The mobile phase (10 mM ammonium acetate at pH 9, A, and acetonitrile, B) was pumped at 0.25 mL/min flow rate over a linear gradient of decreasing organic solvent (0.5-16 min, 90-25% B), followed by re-equilibration for a total run time of 30 min. The MS operated in positive mode at 3500 V with multiple reaction monitoring (MRM). The software Xcalibur v4.1.31.9 (Thermo Scientific) was used for instrument control, data acquisition and processing. Retention time and mass detection was confirmed by authentic standards.
# Oral administration of NRH led to very similar results to those observed after IP administration. […] NRH was detectable in plasma 1 h after oral administration. In contrast, NR levels were undetectable at 1 h after NR administration.
# INS1-cells = test: NAD+ levels in INS1-cells after NRH treatment; assay type: cell-based
# Experimental: (§3) The ability of NRH to potently increase NAD+ was tested as well in other cell type models.
# NRK1 = test: NAD+ levels in primary hepatocytes from control or NRK1 knockout mice; assay type: cell-based; settings: 1 hour of treatment
# Description: (§4) The action of NRH was also NAMPT-independent, based on experiments using FK866, a NAMPT inhibitor. If NRH led to NAD+ synthesis via the formation of NMNH, this hypothetical path would require the phosphorylation of NRH into NMNH. Given the essential and rate-limiting role of NRK1 in NR phosphorylation, we wondered whether the ability of NRH to boost NAD+ levels was NRK1 dependent. To answer this question, we evaluated NRH action in primary hepatocytes from either control or NRK1 knockout (NRK1KO) mice. […] Further, they rule out the possibility that NRH-induced NAD+ […] is driven by NRH oxidation into NR.
# 3T3 fibroblasts = test: NAD+ levels in 3T3 fibroblasts after NRH treatment; assay type: cell-based
# Experimental: as §3
# [3] = Stability in isolated mouse plasma; assay type: in vitro ADME; settings: for generation of NAM in plasma / level of spiked compound in plasma: isolated mouse plasma, 2 h of incubation
# Description: as §2, §1
# [4] = Stability in FBS supplemented media; assay type: in vitro ADME
# Experimental: as §1
# NAD+ synthesis = test: Intracellular NAD+ related metabolites after treatment (UHPLC-MS); assay type: cell-based; settings: for intracellular detection of NRH and NMNH: 5 minutes after treatment
# Description: as §2
# A path in which NRH would be converted to NMNH, then to NADH and this would be finally oxidized to NAD+.
# [5] = Oral gavage in mice: NRH levels in tissues; assay type: in vivo; settings: 2 hours after gavage (250 mg/kg)
# Experimental: 8 week-old C57BI/6NTac mice were orally gavaged with either saline (as vehicle), and NRH (250 mg/kg). After 2 hours, liver, skeletal muscle and kidney NRH levels were evaluated. All results are expressed as mean+/−SEM of n=4 mice per group, as areas under the signal by LC-MS analysis, corrected by total protein amount of tissue.
# as §2
# C2C12 myotubes = test: NAD+ levels in C2C12 myotubes after NRH treatment; assay type: cell-based
# Experimental: as §3
# NAMPT = target: T2, NAMPT (Mus musculus, UniProt Q99KQ4); test: NRH action in presence of NAMPT inhibitor FK866; assay type: cell-based; settings: with FK866, a NAMPT inhibitor
# T2 construct: endogenous in cells
# Description: as §4
# [6] = Intraperitoneal injection in mice: tissue NAD+ and circulating metabolites; assay type: in vivo; settings: for NAM levels in circulation / NAD+ levels in kidney / NAD+ levels in liver / NAD+ levels in muscle: IP 500 mg/kg; for NAD+ levels in kidney / NAD+ levels in liver / NAD+ levels in muscle: after 1 h
# Description: as §2
# The above results prompted us to test whether NRH could act as an effective NAD+ precursor in vivo. For this, we first intraperitoneally (IP) injected mice with either NR or NRH (500 mg/kg). […] Importantly, NRH was detectable in circulation after IP injection.
# AML12 hepatocytes = test: Intracellular NAD+ levels in AML12 hepatocytes (dose-response and time course); assay type: cell-based
# Experimental: Starting at levels at a concentration of 10 μM, NRH achieved similar increases in intracellular NAD+ levels to those reached with NR at 50-fold higher concentrations. NRH achieved maximal effects on NAD+ synthesis around the millimolar range, managing to increase intracellular NAD+ levels by more than 10-fold.
# NRH actions were also extremely fast, as significant increases in NAD+ levels were observed within 5 minutes after NRH treatment.
# Even at such relatively low dose, NRH achieved similar increases in intracellular NAD+ levels to those reached with NR at 50-fold higher concentrations. NRH achieved maximal effects on NAD+ synthesis around the millimolar range, managing to increase intracellular NAD+ levels by more than 10-fold.
# NRH actions were also extremely fast (FIG. 3), as significant increases in NAD+ levels were observed within 5 minutes after NRH treatment.
# T1 sequence (P55264 whole entry): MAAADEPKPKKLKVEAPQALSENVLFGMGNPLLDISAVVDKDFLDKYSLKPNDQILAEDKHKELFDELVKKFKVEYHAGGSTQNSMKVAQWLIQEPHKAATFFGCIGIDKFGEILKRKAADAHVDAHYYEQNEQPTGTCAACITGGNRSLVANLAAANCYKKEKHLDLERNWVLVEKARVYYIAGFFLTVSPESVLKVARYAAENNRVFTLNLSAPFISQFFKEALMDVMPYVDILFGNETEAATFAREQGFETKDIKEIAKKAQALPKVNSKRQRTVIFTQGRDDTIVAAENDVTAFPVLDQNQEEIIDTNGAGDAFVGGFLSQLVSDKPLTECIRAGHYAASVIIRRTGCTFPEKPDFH
# T2 sequence (Q99KQ4 whole entry): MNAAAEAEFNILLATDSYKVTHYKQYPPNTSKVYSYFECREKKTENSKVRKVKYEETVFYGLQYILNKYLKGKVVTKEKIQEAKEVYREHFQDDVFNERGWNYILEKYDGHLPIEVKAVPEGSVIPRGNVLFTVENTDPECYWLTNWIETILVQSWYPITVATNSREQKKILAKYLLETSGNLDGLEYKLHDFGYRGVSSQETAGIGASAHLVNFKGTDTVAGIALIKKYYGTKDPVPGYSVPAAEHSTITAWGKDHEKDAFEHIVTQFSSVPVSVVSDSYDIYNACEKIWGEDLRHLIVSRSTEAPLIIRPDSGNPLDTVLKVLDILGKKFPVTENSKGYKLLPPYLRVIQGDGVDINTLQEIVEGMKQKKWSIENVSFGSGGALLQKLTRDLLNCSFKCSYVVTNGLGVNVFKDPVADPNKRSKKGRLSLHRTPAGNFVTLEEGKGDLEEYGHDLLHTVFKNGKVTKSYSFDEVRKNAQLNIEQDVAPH
smiles,measurement,setting,value
O=C(OC[C@H]1O[C@@H](OC(=O)c2cc(O)c(O)c(OC(=O)c3cc(O)c(O)c(O)c3)c2)[C@H](OC(=O)c2cc(O)c(O)c(OC(=O)c3cc(O)c(O)c(O)c3)c2)[C@@H](OC(=O)c2cc(O)c(O)c(OC(=O)c3cc(O)c(O)c(O)c3)c2)[C@@H]1OC(=O)c1cc(O)c(O)c(OC(=O)c2cc(O)c(O)c(O)c2)c1)c1cc(O)c(O)c(OC(=O)c2cc(O)c(O)c(O)c2)c1 [gallotannin],effect of NMNAT inhibitor on NAD+ synthesis after NRH treatment,NMNAT; NRH at maximal doses (0.5 mM),largely compromised
same,effect of NMNAT inhibitor on NRH action,NMNAT; NRH at submaximal doses,totally blocked
Nc1ncnc2nc(-c3ccc(N4CCOCC4)nc3)cc(-c3cccc(Br)c3)c12 [ABT-702],effect of AK inhibitor on the action of NRH (NAD+ synthesis),adenosine kinase (AK),confirmed
"NC(=O)C1=CN([C@@H]2O[C@H](CO)[C@@H](O)[C@H]2O)C=CC1 [NRH, reduced nicotinamide riboside]",capacity as extracellular NAD+ precursor under ENT blockage,[1],largely lost its capacity
same,time for which stability in water was certified,Stability in water,48 h
same,administered compound in plasma,[2],detectable
same,NRH concentration in plasma,[2]; after oral gavage,11.16 ± 1.74 µM
same,effect on hepatic NAD+ levels compared with NR,[2]; oral administration,more potent effect
same,NAD+ levels,INS1-cells,highly elevated
same,NAD+ levels in NRK1KO derived primary hepatocytes,NRK1,not affected by NRK1 deficiency
same,NAD+ levels,3T3 fibroblasts,highly elevated
same,NR production in plasma,[3]; incubation in isolated plasma,did not lead to NR production
same,generation of NAM in plasma,[3],not generated; also recorded: did not significantly alter NAM levels
same,level of spiked compound in plasma,[3],remained stable
same,degradation to NAM in FBS supplemented media,[4],did not degrade to NAM
same,intracellular detection of NRH and NMNH,NAD+ synthesis,could be detected
same,intracellular NR and NMN,"NAD+ synthesis; after treatment, compared with NR",greater than that triggered by NR itself
same,"generation of NMNH, NADH and NAD+ from NRH upon inhibition of AK",adenosine kinase (AK); metabolomic analyses,fully blunted
same,NRH in kidney,[5],"found intact, in high levels"
same,NRH in liver,[5],"found intact, in high levels"
same,NRH in muscle,[5],"found intact, in high levels"
same,NAD+ levels,C2C12 myotubes,highly elevated
same,dependence of action on NAMPT,NAMPT,NAMPT-independent
same,NAM levels in circulation,[6],only a very mild increase
same,NAD+ levels in kidney,[6],increased
same,NAD+ levels in liver,[6],increased
same,NAD+ levels in muscle,[6],increased
same,NRH in circulation,[6]; after IP injection,detectable
same,NR in circulation,"[6]; after IP injection, compared with NR injection",much higher levels than those detected after NR injection itself
same,ability to increase intracellular NAD+ compared with NR,AML12 hepatocytes; AML12 hepatocytes,better than NR; also recorded: superior to that of NR
same,time to significant increase in NAD+ levels after treatment,AML12 hepatocytes; AML12 hepatocytes (FIG. 3),≤ 5 min
same,increase of intracellular NAD+ levels (maximal effect),"AML12 hepatocytes; AML12 hepatocytes, around the millimolar range",more than 10 fold
same,concentration at which NAD+ levels were significantly increased,"AML12 hepatocytes; AML12 hepatocytes, dose-response (FIG. 2)",10 µM
same,fold higher NR concentration needed for similar increase in intracellular NAD+,AML12 hepatocytes; NRH at 10 μM versus NR,50 fold
"Nc1ncnc2c1c(I)cn2[C@@H]1O[C@H](CO)[C@@H](O)[C@H]1O [5-IT, 5-iodotubercidin]",effect of AK inhibitor on the action of NRH (NAD+ synthesis),adenosine kinase (AK),fully ablated
same,formation of NR and NMN after NRH treatment,adenosine kinase (AK); with AK inhibitor,prevented
"NC(=O)c1ccc[n+]([C@@H]2O[C@H](CO)[C@@H](O)[C@H]2O)c1 [NR, 1-b-D-ribofuranosyl-3-pyridinecarboxamide salt, reference compound]",administered compound in plasma,[2],undetectable
same,circulating NAM,[2]; oral administration,large increases
same,NAD+ levels in NRK1KO derived primary hepatocytes,NRK1,failed to increase NAD+ levels
same,generation of NAM in plasma,[3],increase in NAM
same,level of spiked compound in plasma,[3],decayed
same,intracellular detection of NRH and NMNH,NAD+ synthesis,not
same,NAM levels in circulation,[6],highly increased
same,NAD+ levels in kidney,[6],increased
same,NAD+ levels in liver,[6],increased
same,NAD+ levels in muscle,[6],increased
